Residual activity data for 2 molecules are collected here from ChEMBL document CHEMBL4507319 (2021).

Common to all, as to conditions: Compound concentration 1000.0 nM
In experiment [1] the test system is Epidermal growth factor receptor (Homo sapiens), P00533 [T790M].
In experiment [2] the target is Serine/threonine-protein kinase NIM1 (Homo sapiens) (UniProt Q8IY84).
The target in experiment [3] is Serine/threonine-protein kinase MARK2 (Homo sapiens) (UniProt Q7KZI7).
Experiment [4] has as its target T1, Ephrin type-A receptor 3 (Homo sapiens) (UniProt P29320).
T1 sequence (whole entry): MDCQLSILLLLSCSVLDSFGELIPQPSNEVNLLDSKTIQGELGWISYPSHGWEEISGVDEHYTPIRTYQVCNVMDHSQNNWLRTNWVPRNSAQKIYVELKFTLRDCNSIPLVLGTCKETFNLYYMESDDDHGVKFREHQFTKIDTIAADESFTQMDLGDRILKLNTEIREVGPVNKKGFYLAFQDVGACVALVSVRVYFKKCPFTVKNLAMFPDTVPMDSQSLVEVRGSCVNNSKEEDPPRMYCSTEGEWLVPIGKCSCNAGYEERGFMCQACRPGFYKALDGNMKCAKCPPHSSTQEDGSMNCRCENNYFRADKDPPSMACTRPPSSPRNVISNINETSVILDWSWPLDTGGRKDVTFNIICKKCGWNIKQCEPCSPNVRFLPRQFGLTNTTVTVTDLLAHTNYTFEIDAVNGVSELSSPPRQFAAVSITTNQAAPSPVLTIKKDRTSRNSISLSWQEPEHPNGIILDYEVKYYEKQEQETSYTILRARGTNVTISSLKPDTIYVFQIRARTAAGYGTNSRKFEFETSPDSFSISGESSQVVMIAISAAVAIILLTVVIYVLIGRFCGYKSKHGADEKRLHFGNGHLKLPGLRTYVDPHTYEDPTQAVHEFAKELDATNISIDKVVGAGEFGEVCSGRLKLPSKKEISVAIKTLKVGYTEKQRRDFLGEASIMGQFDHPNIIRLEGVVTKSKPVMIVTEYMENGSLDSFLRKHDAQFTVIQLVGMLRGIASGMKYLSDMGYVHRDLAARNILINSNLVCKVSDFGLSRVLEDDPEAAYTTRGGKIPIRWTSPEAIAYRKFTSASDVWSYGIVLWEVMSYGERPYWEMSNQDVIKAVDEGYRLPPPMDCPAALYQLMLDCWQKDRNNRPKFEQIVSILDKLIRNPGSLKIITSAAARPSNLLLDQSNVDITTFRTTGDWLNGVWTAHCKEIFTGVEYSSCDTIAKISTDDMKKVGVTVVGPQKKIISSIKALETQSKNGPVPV

Experiment [5] addresses T2, Serine/threonine-protein kinase TBK1 (Homo sapiens) (UniProt Q9UHD2).
T2 sequence (whole entry): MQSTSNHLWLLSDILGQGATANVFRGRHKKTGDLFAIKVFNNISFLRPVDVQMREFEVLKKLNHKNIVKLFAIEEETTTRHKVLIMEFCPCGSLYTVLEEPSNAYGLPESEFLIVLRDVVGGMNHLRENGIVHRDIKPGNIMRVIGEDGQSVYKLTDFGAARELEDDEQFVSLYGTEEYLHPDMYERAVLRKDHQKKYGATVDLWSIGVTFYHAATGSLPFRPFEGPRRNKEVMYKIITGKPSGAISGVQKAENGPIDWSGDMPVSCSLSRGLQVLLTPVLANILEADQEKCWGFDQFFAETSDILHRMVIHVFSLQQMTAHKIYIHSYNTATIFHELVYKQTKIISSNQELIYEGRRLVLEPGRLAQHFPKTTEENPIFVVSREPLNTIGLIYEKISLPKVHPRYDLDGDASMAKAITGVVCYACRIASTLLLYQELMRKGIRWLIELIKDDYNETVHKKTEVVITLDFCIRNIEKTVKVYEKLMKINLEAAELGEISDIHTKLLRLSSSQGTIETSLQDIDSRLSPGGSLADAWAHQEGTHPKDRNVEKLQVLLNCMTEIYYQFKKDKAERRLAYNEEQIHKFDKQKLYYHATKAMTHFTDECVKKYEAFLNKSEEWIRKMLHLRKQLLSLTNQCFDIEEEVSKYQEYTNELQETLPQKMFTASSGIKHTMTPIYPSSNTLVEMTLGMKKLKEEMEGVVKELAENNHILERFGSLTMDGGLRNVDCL

The target of experiment [6] is Death-associated protein kinase 1 (Homo sapiens) (UniProt P53355).
Sequence of Death-associated protein kinase 1 (Homo sapiens) (P53355 whole entry, looked up): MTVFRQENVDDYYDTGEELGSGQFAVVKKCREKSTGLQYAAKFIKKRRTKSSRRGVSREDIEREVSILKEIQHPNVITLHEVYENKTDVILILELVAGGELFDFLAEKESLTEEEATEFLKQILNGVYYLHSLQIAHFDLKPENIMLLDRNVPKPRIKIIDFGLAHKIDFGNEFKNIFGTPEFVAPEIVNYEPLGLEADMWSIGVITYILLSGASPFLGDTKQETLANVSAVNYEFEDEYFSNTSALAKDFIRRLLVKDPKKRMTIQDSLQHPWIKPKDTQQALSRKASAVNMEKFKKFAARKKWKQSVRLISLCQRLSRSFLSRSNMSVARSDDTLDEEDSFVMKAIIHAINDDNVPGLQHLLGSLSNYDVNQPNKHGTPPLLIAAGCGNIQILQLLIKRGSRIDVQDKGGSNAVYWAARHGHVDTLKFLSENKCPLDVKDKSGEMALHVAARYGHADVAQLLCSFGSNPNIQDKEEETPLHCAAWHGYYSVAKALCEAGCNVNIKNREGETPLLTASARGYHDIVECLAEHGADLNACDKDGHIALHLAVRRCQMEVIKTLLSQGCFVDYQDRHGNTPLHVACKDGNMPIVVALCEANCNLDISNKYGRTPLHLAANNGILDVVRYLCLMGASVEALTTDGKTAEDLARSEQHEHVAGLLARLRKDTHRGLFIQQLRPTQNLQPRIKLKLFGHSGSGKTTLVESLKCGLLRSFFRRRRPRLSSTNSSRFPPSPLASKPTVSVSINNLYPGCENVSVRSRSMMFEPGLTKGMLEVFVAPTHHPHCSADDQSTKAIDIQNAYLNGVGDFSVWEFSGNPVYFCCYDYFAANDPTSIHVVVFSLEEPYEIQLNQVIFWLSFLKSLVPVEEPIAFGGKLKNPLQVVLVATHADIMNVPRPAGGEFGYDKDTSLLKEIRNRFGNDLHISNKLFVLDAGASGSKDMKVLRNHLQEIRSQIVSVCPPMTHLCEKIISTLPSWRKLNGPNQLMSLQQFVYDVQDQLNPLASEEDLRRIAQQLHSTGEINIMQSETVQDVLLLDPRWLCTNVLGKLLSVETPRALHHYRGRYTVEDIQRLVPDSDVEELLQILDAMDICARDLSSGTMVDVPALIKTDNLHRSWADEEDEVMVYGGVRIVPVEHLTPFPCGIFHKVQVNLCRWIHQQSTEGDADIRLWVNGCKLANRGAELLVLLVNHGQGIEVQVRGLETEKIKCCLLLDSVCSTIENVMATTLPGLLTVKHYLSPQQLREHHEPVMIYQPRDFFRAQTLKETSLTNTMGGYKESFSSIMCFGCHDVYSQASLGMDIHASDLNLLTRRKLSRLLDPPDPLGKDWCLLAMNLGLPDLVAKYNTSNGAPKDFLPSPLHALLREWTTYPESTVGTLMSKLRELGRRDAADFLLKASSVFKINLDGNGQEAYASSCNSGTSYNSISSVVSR
The target of experiment [7] is T3, Serine/threonine-protein kinase Sgk1 (Homo sapiens) (UniProt O00141).
T3 sequence (whole entry): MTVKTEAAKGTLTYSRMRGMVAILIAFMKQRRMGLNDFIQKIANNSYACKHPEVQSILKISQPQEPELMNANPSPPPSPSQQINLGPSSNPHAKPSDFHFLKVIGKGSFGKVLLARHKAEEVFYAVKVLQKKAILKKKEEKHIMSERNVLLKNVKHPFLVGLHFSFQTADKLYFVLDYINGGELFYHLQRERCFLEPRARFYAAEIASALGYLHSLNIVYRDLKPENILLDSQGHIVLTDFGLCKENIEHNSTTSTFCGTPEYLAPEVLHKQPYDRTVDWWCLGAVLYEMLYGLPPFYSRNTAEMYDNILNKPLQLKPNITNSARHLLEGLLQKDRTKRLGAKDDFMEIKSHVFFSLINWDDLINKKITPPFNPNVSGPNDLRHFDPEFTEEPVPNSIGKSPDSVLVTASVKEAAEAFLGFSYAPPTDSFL

The target of experiment [8] is Serine/threonine-protein kinase 32C (Homo sapiens) (UniProt Q86UX6).
Sequence of Serine/threonine-protein kinase 32C (Homo sapiens) (Q86UX6 whole entry): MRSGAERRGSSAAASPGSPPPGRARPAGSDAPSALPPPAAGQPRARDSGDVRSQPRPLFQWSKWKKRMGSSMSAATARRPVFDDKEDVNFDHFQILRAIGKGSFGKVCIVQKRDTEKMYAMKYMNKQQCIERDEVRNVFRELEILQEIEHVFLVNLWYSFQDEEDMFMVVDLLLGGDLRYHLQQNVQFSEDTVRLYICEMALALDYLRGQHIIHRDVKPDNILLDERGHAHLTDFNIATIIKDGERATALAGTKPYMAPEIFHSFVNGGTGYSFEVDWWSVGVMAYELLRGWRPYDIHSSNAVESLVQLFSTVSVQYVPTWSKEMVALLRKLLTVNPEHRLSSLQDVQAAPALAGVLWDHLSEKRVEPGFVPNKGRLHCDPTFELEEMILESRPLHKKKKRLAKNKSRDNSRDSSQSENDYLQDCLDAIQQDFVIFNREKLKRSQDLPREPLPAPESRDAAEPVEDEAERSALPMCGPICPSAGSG

Sequence of Serine/threonine-protein kinase MARK2 (Homo sapiens) (Q7KZI7 whole entry): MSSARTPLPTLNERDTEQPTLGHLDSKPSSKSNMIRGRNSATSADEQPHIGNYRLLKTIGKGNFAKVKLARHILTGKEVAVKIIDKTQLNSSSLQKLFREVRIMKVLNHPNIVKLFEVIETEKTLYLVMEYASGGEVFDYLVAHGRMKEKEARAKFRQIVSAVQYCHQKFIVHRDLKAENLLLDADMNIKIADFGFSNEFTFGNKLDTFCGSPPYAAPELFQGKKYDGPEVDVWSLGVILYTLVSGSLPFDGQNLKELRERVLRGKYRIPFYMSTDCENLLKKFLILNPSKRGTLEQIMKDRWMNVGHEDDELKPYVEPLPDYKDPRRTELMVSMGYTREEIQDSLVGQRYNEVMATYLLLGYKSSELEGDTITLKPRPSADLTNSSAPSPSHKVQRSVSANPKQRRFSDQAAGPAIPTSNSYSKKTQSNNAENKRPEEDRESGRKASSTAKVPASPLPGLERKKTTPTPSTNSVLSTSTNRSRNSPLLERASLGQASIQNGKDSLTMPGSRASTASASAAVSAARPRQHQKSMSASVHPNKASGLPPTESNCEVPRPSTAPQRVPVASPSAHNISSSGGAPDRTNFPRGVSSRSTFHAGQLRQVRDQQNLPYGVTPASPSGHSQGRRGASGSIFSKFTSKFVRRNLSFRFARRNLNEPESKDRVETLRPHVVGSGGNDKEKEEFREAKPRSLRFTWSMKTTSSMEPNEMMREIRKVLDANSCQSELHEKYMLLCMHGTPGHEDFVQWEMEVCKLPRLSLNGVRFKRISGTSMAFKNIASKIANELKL
Sequence of Serine/threonine-protein kinase NIM1 (Homo sapiens) (Q8IY84 whole entry): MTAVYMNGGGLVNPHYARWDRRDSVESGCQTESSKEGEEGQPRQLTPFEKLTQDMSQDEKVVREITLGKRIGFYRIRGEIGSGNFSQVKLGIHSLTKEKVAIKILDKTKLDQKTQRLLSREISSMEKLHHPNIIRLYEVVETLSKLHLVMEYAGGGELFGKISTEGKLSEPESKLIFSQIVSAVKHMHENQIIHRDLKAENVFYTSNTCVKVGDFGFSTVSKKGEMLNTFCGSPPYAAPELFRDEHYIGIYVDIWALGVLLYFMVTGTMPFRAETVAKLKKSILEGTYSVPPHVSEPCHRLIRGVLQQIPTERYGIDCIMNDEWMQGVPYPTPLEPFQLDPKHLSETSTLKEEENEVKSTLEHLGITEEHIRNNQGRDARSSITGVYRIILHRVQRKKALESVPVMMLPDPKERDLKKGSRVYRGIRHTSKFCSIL

Broadly, the residual activity is the share of the control activity or signal that is left under treatment. Take `CCc1ccccc1C(=O)Nc1n[nH]c2c(C)c(F)c(C3C(C#N)=C(C)N(C)C(C)=C3C#N)cc12` [BAY-3827]: the residual activity was 100% in experiment [1]; 100% in experiment [2]; 40% in experiment [3]; 100% in experiment [4]; 77% in experiment [5]; 100% in experiment [6]. In addition, the residual activity in experiment [7] and in experiment [8] was 100% throughout.

Regarding `CC1=C(C#N)C(c2ccc3c(c2)c(NC(=O)c2ccccc2C)nn3C)C(C#N)=C(C)N1` [BAY-974], the residual activity is 100% in experiment [1]; 86% in experiment [2]; 99% in experiment [3]; 99% in experiment [4]; 69% in experiment [5]; 89% in experiment [6]. The residual activity in experiment [7] is 89%; in experiment [8] it was 79%.
